These results are taken from patent publication US20100222349A1, “QUINOLINE DERIVATIVES USED TO TREAT INFLAMMATORY AND ALLERGIC DISEASES” (Glaxo Group Limited, priority 2007, published 2010).

The target of one test is T1, histamine H3 receptor (Homo sapiens, UniProt Q9Y5N1).
T1 construct: expressed in transfected cells; host or cells: CHO K1 cells with pSwitch/pGeneH3 (GeneSwitch, mifepristone-induced), clone 3H3; membrane preparation
Put plainly: Histamine H3 functional antagonist assay (GTPγS, membranes). The test is classed as biochemical. The conditions noted are these: CHO K1 membranes, [35S]-GTPγS, histamine at EC80; read-out: average pKi (pKb) at H3 (converted). Put shortly:
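Membranes came from CHO K1 cells with mifepristone-inducible (10 nM, 18 h) human H3 receptor expression, clone 3H3. Test compounds in DMSO were combined with WGA polystyrene LeadSeeker SPA beads, membranes and GDP.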

For test [1], the target named is T2, human H1 receptor (Homo sapiens, UniProt P35367).
T2 construct: expressed in transfected cells
Nature of the test: Histamine H1 functional antagonist assay: antagonist duration. The test is classed as cell-based. To be noted: at one or more time points, after washout. The protocol:
(§1) The human H1 receptor is cloned using known procedures described in the literature [Biochem. Biophys. Res. Commun., 201(2):894 (1994)]. Chinese hamster ovary (CHO) cells stably expressing the human H1 receptor are generated according to known procedures described in the literature [Br. J. Pharmacol., 117(6):1071 (1996)].
To determine the antagonist duration, cells are cultured overnight in non-coated black-walled clear bottom 96-well tissue culture plates, are washed with PBS and are incubated with a concentration of antagonist chosen to give an approximate DR in the range 30-300. Following the 30 min antagonist incubation period, the cells are washed two or three times with 200 μl of PBS and then 100 μl Tyrodes buffer is added to each well to initiate antagonist dissociation. Following incubation for predetermined times, typically 30-270 min at 37° C., the cells are then washed again with 200 μl PBS and are incubated with 100 μl Tyrodes buffer containing Brilliant Black, probenecid and Fluo-4 for 45 min at 37° C., as described above. After this period, the cells are challenged with histamine in the FLIPR™ as described above. The dose ratio at each time point is used to determine the fractional H1 receptor occupancy by the following equation: fractional receptor occupancy=(DR-1)/DR. The decrease in receptor occupancy over time approximates to a straight line and is analysed by linear regression. The slope of this straight line fit is used as an index of the dissociation rate of the antagonist. The dose ratios for antagonist treated cells and for antagonist treated and washed cells at each time point are used to calculate a relative dose ratio (rel DR) which is also used as an index of antagonist duration. Antagonists with long duration of action produce rel DR values close to 1, and antagonists with short duration of action produce rel DR values that approaches the dose ratio value obtained for antagonist treatment alone.

Test [2] deals with T2, human H1 receptor. Put plainly: Histamine H1 functional antagonist assay: determination of functional pKi values (FLIPR). Format: cell-based. The conditions noted are these: CHO cells expressing human H1 receptor, histamine at EC80, read-out: average pKi (pKb) at H1 (converted). Put shortly: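 Functional affinities come from concentration-effect curves of inhibited histamine (EC80) calcium responses read by FLIPR. Compound sat 30 min at 37° C on Fluo-4-loaded CHO cells stably expressing human H1 receptor, in probenecid-containing Tyrodes buffer, pH 7.40.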

In test [3] the target is T2, human H1 receptor. Nature of the test: Histamine H1 functional antagonist assay: determination of antagonist pA2 (FLIPR). The test is classed as cell-based. The conditions noted are these: histamine H1 receptor expressing CHO cells, histamine concentration response curves. The protocol:
as §1
The histamine H1 receptor expressing CHO cells are seeded into non-coated black-walled clear bottom 96-well tissue culture plates as described above.
Following overnight culture, growth medium is removed from each well, washed with 200 μl PBS and is replaced with 50 μl loading dye (250 μM Brilliant Black, 1 μM Fluo-4 diluted in Tyrodes buffer+probenecid (145 mM NaCl, 2.5 mM KCl, 10 mM HEPES, 10 mM D-glucose, 1.2 mM MgCl2, 1.5 mM CaCl2, 2.5 mM probenecid, pH adjusted to 7.40 with NaOH 1.0 M)). Cells are incubated for 45 min at 37° C. The loading buffer is removed and the cells are washed as above, and 90 μl of Tyrodes buffer+probenecid is added to each well. 10 μl of test compound, diluted to the required concentration in Tyrodes buffer+probenecid (or 10 μl Tyrodes buffer+probenecid as a control) is added to each well and the plate is incubated for 30 min at 37° C., 5% CO2.
The plates are then placed into a FLIPR™ (Molecular Devices, UK) to monitor cell fluorescence (λex=488 nm, λEM=540 nm) in the manner described in Sullivan et al., (In: Lambert DG (ed.), Calcium Signaling Protocols, New Jersey: Humana Press, 1999, 125-136) before and after the addition of 50 μl histamine over a concentration range of 1 mM-0.1 nM. The resultant concentration response curves are analysed by non-linear regression using a standard four parameter logistic equation to determine the histamine EC50, the concentration of histamine required to produce a response of 50% of the maximum response to histamine. The antagonist pA2 is calculated using the following standard equation: pA2=[…] where DR=dose ratio, defined as EC50antagonist-treated/EC50control and [B]=concentration of antagonist.

T2 sequence (P35367 whole entry): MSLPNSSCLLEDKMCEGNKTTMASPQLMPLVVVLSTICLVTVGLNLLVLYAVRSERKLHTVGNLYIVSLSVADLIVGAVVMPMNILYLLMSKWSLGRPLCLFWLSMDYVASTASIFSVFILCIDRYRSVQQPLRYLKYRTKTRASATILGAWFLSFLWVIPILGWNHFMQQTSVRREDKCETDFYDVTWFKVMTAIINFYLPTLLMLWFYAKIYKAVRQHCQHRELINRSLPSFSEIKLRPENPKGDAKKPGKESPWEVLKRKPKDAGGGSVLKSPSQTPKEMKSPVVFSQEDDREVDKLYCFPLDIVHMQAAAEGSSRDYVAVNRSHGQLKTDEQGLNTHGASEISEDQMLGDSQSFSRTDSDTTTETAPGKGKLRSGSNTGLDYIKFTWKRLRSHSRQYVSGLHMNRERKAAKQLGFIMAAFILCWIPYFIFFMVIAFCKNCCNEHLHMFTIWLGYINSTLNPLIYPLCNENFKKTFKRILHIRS
T1 sequence (Q9Y5N1 whole entry, species assumed): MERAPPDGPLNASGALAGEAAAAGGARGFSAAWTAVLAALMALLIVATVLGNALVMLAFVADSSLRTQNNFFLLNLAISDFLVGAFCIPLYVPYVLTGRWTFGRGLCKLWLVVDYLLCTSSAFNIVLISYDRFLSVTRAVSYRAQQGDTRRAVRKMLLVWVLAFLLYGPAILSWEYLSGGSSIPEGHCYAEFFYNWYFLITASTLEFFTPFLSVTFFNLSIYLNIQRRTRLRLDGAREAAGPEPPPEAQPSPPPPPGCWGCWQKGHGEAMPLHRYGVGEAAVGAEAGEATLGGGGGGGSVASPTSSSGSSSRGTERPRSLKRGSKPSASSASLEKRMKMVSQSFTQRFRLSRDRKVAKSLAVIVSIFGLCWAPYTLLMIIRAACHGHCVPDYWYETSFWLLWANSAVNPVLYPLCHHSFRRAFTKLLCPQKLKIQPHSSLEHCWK

As to `CCCCc1cc(OC2CCN(C[C@H]3CC[C@H](C(=O)N4CCCCC4)CC3)CC2)c2ncccc2c1` [Example 44, 6-Butyl-8-[(1-{[trans-4-(1-piperidinylcarbonyl)cyclohexyl]methyl}-4-piperidinyl)oxy]quinoline], the Ki was > 316 nM on histamine H3 receptor and < 10 nM at human H1 receptor [2]. Moreover, the “duration of action compared with azelastine” value on human H1 receptor [1] is listed as “longer duration of action than azelastine”.

Take `CCCCc1cc(OC2CCN(C[C@H]3CC[C@H](C(=O)N(CC)CC)CC3)CC2)c2ncccc2c1` [Example 43, Trans-4-({4-[(6-butyl-8-quinolinyl)oxy]-1-piperidinyl}methyl)-N,N-diethylcyclohexane carboxamide]: the Ki at histamine H3 receptor is > 316 nM; on human H1 receptor [2], < 10 nM. On human H1 receptor [1], the “duration of action compared with azelastine” value is “longer duration of action than azelastine”.

In the case of `CCCCc1cc(O[C@H]2CCN(CCCC(=O)NC(C)(C)C)C2)c2ncccc2c1` [Example 41, 4-{(3S)-3-[(6-butyl-8-quinolinyl)oxy]-1-pyrrolidinyl}-N-(1,1-dimethylethyl) butanamide], the values for the Ki at histamine H3 receptor and on human H1 receptor [2] were > 316 nM and < 100 nM, respectively. For the same compound, the Kb (in general, the equilibrium dissociation constant of an antagonist, usually derived from a functional assay) on human H1 receptor [3] was < 100 nM.

For the compound `CCCCc1cc(OC2CCN(CCNC(=O)C(C)(C)C)CC2)c2ncccc2c1` [Example 72, N-(2-{4-[(6-butyl-8-quinolinyl)oxy]-1-piperidinyl}ethyl)-2,2-dimethyl propanamide], the Ki at histamine H3 receptor was > 316 nM; at human H1 receptor [2] it was < 10 nM. In addition, the “duration of action compared with azelastine” value at human H1 receptor [1] is recorded as “longer duration of action than azelastine”.

On to `CCCCc1cc(O[C@H]2CCN(CCC(=O)N(CC)CC)C2)c2ncccc2c1` [Example 40, 3-{(3S)-3-[(6-butyl-8-quinolinyl)oxy]-1-pyrrolidinyl}-N,N-diethylpropanamide], for which the figures for the Ki on histamine H3 receptor and on human H1 receptor [2] were > 316 nM and ~1000 nM, respectively. Besides, the Kb at human H1 receptor [3] was < 100 nM.
